Results published in patent US20250223268A1, “4-Methylsulfonylbenzamide Compound, Preparation Method, Herbicidal Composition And Use” (Jiangsu Flag Chemical Industry Co., Ltd., priority 2022, published 2025).

Columns and labels:
Type in all cases: in vivo
[1] = tested on: Leptochloa chinensis; experiment: Greenhouse herbicidal activity assay, post-emergence; conditions: Post-emergence test, rate 150 g a.i./hm^2; grade by fresh weight inhibition rate
Summary of the method: (§1)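 Scores reflect fresh weight inhibition assessed 14-21 days after treatment, with grade A meaning ≥80% to 100% and grade E meaning <20%. Plants, raised in nutrient-soil pots inside a growth chamber, were sprayed on the foliage at the 3-6 leaf stage.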

[2] = tested on: Eclipta prostrata; experiment: as above; conditions: Post-emergence test, rate 150 g a.i./hm^2; grade by fresh weight inhibition rate
Summary of the method: as §1

[3] = tested on: Echinochloa crusgalli; experiment: as above; conditions: Post-emergence test, rate 150 g a.i./hm^2; grade by fresh weight inhibition rate
Summary of the method: as §1

[4] = tested on: Cyperus iria; experiment: as above; conditions: Post-emergence test, rate 150 g a.i./hm^2; grade by fresh weight inhibition rate
Summary of the method: as §1

[5] = tested on: Digitaria sanguinalis; experiment: as above; conditions: Post-emergence test, rate 150 g a.i./hm^2; grade by fresh weight inhibition rate
Summary of the method: as §1

[6] = tested on: Oryza sativa subsp. indica; experiment: Greenhouse herbicidal activity and crop safety comparison (Test Example 2)
Summary of the method: (§2)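 Fresh weight inhibition, banded into grades A to E (E <20%), was rated 14-21 days after foliar spraying of 3-6 leaf plants, or 14-30 days after a soil spray applied 24 h post-sowing.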

[7] = tested on: Oryza sativa subsp. japonica; experiment: as above
Summary of the method: as §2

[8] = tested on: Leptochloa chinensis; experiment: as above
Summary of the method: as §2

[9] = tested on: Echinochloa crusgalli; experiment: as above
Summary of the method: as §2

CCC(C)S(=O)(=O)c1c(S(C)(=O)=O)ccc(C(=O)Nc2nnco2)c1Cl (racemic) [Compound 3-290]
Control efficacy grade, Leptochloa chinensis [1]: A (Fresh weight inhibition rate≥80% to 100%) | Control efficacy grade, Eclipta prostrata [2]: A (Fresh weight inhibition rate≥80% to 100%) | Control efficacy grade, Echinochloa crusgalli [3]: A (Fresh weight inhibition rate≥80% to 100%) | Control efficacy grade, Cyperus iria [4]: A (Fresh weight inhibition rate≥80% to 100%) | Control efficacy grade, Digitaria sanguinalis [5]: A (Fresh weight inhibition rate≥80% to 100%) | Oryza sativa subsp. indica, grading of fresh weight inhibition rate (crop safety) ([6]; Rate 150 g/ha): E (Fresh weight inhibition rate<20%) | Oryza sativa subsp. japonica, grading of fresh weight inhibition rate (crop safety) ([7]; Rate 150 g/ha): E (Fresh weight inhibition rate<20%) | Leptochloa chinensis, control efficacy grading (fresh weight inhibition rate) ([8]; Rate 150 g/ha): A (Fresh weight inhibition rate≥80% to 100%) | Echinochloa crusgalli, control efficacy grading (fresh weight inhibition rate) ([9]; Rate 150 g/ha): A (Fresh weight inhibition rate≥80% to 100%)

Cc1nnc(NC(=O)c2ccc(S(C)(=O)=O)c(S(=O)(=O)CC(C)C)c2Cl)o1 [Compound 3-31]
Control efficacy grade, Leptochloa chinensis [1]: A (Fresh weight inhibition rate≥80% to 100%) | Control efficacy grade, Eclipta prostrata [2]: A (Fresh weight inhibition rate≥80% to 100%) | Control efficacy grade, Echinochloa crusgalli [3]: B (Fresh weight inhibition rate≥260% to <80%) | Control efficacy grade, Cyperus iria [4]: A (Fresh weight inhibition rate≥80% to 100%) | Control efficacy grade, Digitaria sanguinalis [5]: A (Fresh weight inhibition rate≥80% to 100%) | Oryza sativa subsp. indica, grading of fresh weight inhibition rate (crop safety) ([6]; Rate 250 g/ha): E (Fresh weight inhibition rate<20%) | Oryza sativa subsp. japonica, grading of fresh weight inhibition rate (crop safety) ([7]; Rate 250 g/ha): E (Fresh weight inhibition rate<20%) | Leptochloa chinensis, control efficacy grading (fresh weight inhibition rate) ([8]; Rate 250 g/ha): A (Fresh weight inhibition rate≥80% to 100%) | Echinochloa crusgalli, control efficacy grading (fresh weight inhibition rate) ([9]; Rate 250 g/ha): A (Fresh weight inhibition rate≥80% to 100%)

Cc1nnc(NC(=O)c2ccc(S(C)(=O)=O)c(S(=O)(=O)CCC#N)c2Cl)o1 [Compound 3-201]
Control efficacy grade, Leptochloa chinensis [1]: A (Fresh weight inhibition rate≥80% to 100%) | Control efficacy grade, Eclipta prostrata [2]: A (Fresh weight inhibition rate≥80% to 100%) | Control efficacy grade, Cyperus iria [4]: A (Fresh weight inhibition rate≥80% to 100%) | Oryza sativa subsp. indica, grading of fresh weight inhibition rate (crop safety) ([6]; Rate 150 g/ha): E (Fresh weight inhibition rate<20%) | Oryza sativa subsp. japonica, grading of fresh weight inhibition rate (crop safety) ([7]; Rate 150 g/ha): E (Fresh weight inhibition rate<20%) | Leptochloa chinensis, control efficacy grading (fresh weight inhibition rate) ([8]; Rate 150 g/ha): A (Fresh weight inhibition rate≥80% to 100%) | Echinochloa crusgalli, control efficacy grading (fresh weight inhibition rate) ([9]; Rate 150 g/ha): C (Fresh weight inhibition rate≥40% to <60%)

Cc1nnc(NC(=O)c2ccc(S(C)(=O)=O)c(S(=O)(=O)C3CCCCC3)c2Cl)o1 [Compound 3-96]
Control efficacy grade, Leptochloa chinensis [1]: A (Fresh weight inhibition rate≥80% to 100%) | Control efficacy grade, Eclipta prostrata [2]: A (Fresh weight inhibition rate≥80% to 100%) | Control efficacy grade, Cyperus iria [4]: A (Fresh weight inhibition rate≥80% to 100%) | Oryza sativa subsp. indica, grading of fresh weight inhibition rate (crop safety) ([6]; Rate 150 g/ha): E (Fresh weight inhibition rate<20%) | Oryza sativa subsp. japonica, grading of fresh weight inhibition rate (crop safety) ([7]; Rate 150 g/ha): E (Fresh weight inhibition rate<20%) | Leptochloa chinensis, control efficacy grading (fresh weight inhibition rate) ([8]; Rate 150 g/ha): A (Fresh weight inhibition rate≥80% to 100%) | Echinochloa crusgalli, control efficacy grading (fresh weight inhibition rate) ([9]; Rate 150 g/ha): C (Fresh weight inhibition rate≥40% to <60%)

CC(C)c1nnc(NC(=O)c2ccc(S(C)(=O)=O)c(S(=O)(=O)CC3CC3)c2Cl)o1 [Compound 3-534]
Control efficacy grade, Leptochloa chinensis [1]: B (Fresh weight inhibition rate≥260% to <80%) | Control efficacy grade, Eclipta prostrata [2]: A (Fresh weight inhibition rate≥80% to 100%) | Control efficacy grade, Echinochloa crusgalli [3]: B (Fresh weight inhibition rate≥260% to <80%) | Control efficacy grade, Cyperus iria [4]: A (Fresh weight inhibition rate≥80% to 100%) | Control efficacy grade, Digitaria sanguinalis [5]: B (Fresh weight inhibition rate≥260% to <80%) | Oryza sativa subsp. indica, grading of fresh weight inhibition rate (crop safety) ([6]; Rate 150 g/ha): E (Fresh weight inhibition rate<20%) | Oryza sativa subsp. japonica, grading of fresh weight inhibition rate (crop safety) ([7]; Rate 150 g/ha): E (Fresh weight inhibition rate<20%) | Leptochloa chinensis, control efficacy grading (fresh weight inhibition rate) ([8]; Rate 150 g/ha): A (Fresh weight inhibition rate≥80% to 100%)

CCc1nnc(NC(=O)c2ccc(S(C)(=O)=O)c(S(=O)(=O)CC(F)(F)F)c2Cl)o1 [Compound 3-443]
Control efficacy grade, Leptochloa chinensis [1]: A (Fresh weight inhibition rate≥80% to 100%) | Control efficacy grade, Eclipta prostrata [2]: A (Fresh weight inhibition rate≥80% to 100%) | Control efficacy grade, Cyperus iria [4]: A (Fresh weight inhibition rate≥80% to 100%) | Oryza sativa subsp. indica, grading of fresh weight inhibition rate (crop safety) ([6]; Rate 150 g/ha): E (Fresh weight inhibition rate<20%) | Oryza sativa subsp. japonica, grading of fresh weight inhibition rate (crop safety) ([7]; Rate 150 g/ha): E (Fresh weight inhibition rate<20%) | Leptochloa chinensis, control efficacy grading (fresh weight inhibition rate) ([8]; Rate 150 g/ha): A (Fresh weight inhibition rate≥80% to 100%) | Echinochloa crusgalli, control efficacy grading (fresh weight inhibition rate) ([9]; Rate 150 g/ha): C (Fresh weight inhibition rate≥40% to <60%)

CS(=O)(=O)c1ccc(C(=O)Nc2nnc(C3CC3)o2)c(Cl)c1S(=O)(=O)C1CCC1 [Compound 3-660]
Control efficacy grade, Leptochloa chinensis [1]: A (Fresh weight inhibition rate≥80% to 100%) | Control efficacy grade, Eclipta prostrata [2]: A (Fresh weight inhibition rate≥80% to 100%) | Control efficacy grade, Cyperus iria [4]: A (Fresh weight inhibition rate≥80% to 100%) | Oryza sativa subsp. indica, grading of fresh weight inhibition rate (crop safety) ([6]; Rate 150 g/ha): E (Fresh weight inhibition rate<20%) | Oryza sativa subsp. japonica, grading of fresh weight inhibition rate (crop safety) ([7]; Rate 150 g/ha): E (Fresh weight inhibition rate<20%) | Leptochloa chinensis, control efficacy grading (fresh weight inhibition rate) ([8]; Rate 150 g/ha): A (Fresh weight inhibition rate≥80% to 100%) | Echinochloa crusgalli, control efficacy grading (fresh weight inhibition rate) ([9]; Rate 150 g/ha): C (Fresh weight inhibition rate≥40% to <60%)

C#CCS(=O)(=O)c1c(S(C)(=O)=O)ccc(C(=O)Nc2nnc(C)o2)c1Cl [Compound 3-151]
Control efficacy grade, Leptochloa chinensis [1]: A (Fresh weight inhibition rate≥80% to 100%) | Control efficacy grade, Eclipta prostrata [2]: A (Fresh weight inhibition rate≥80% to 100%) | Control efficacy grade, Echinochloa crusgalli [3]: B (Fresh weight inhibition rate≥260% to <80%) | Control efficacy grade, Cyperus iria [4]: A (Fresh weight inhibition rate≥80% to 100%) | Control efficacy grade, Digitaria sanguinalis [5]: B (Fresh weight inhibition rate≥260% to <80%) | Oryza sativa subsp. indica, grading of fresh weight inhibition rate (crop safety) ([6]; Rate 150 g/ha): E (Fresh weight inhibition rate<20%) | Oryza sativa subsp. japonica, grading of fresh weight inhibition rate (crop safety) ([7]; Rate 150 g/ha): E (Fresh weight inhibition rate<20%) | Leptochloa chinensis, control efficacy grading (fresh weight inhibition rate) ([8]; Rate 150 g/ha): A (Fresh weight inhibition rate≥80% to 100%)

CS(=O)(=O)c1ccc(C(=O)Nc2nnc(C3CC3)o2)c(Cl)c1S(=O)(=O)CC1CC1 [Compound 3-650]
Control efficacy grade, Leptochloa chinensis [1]: A (Fresh weight inhibition rate≥80% to 100%) | Control efficacy grade, Eclipta prostrata [2]: A (Fresh weight inhibition rate≥80% to 100%) | Control efficacy grade, Echinochloa crusgalli [3]: B (Fresh weight inhibition rate≥260% to <80%) | Control efficacy grade, Cyperus iria [4]: A (Fresh weight inhibition rate≥80% to 100%) | Control efficacy grade, Digitaria sanguinalis [5]: A (Fresh weight inhibition rate≥80% to 100%) | Oryza sativa subsp. indica, grading of fresh weight inhibition rate (crop safety) ([6]; Rate 150 g/ha): E (Fresh weight inhibition rate<20%) | Oryza sativa subsp. japonica, grading of fresh weight inhibition rate (crop safety) ([7]; Rate 150 g/ha): E (Fresh weight inhibition rate<20%) | Leptochloa chinensis, control efficacy grading (fresh weight inhibition rate) ([8]; Rate 150 g/ha): B (Fresh weight inhibition rate≥260% to <80%)

Cc1nnc(NC(=O)c2ccc(S(C)(=O)=O)c(S(=O)(=O)Cc3ccccc3)c2Cl)o1 [Compound 3-71]
Control efficacy grade, Leptochloa chinensis [1]: A (Fresh weight inhibition rate≥80% to 100%) | Control efficacy grade, Eclipta prostrata [2]: A (Fresh weight inhibition rate≥80% to 100%) | Control efficacy grade, Cyperus iria [4]: A (Fresh weight inhibition rate≥80% to 100%) | Oryza sativa subsp. indica, grading of fresh weight inhibition rate (crop safety) ([6]; Rate 150 g/ha): E (Fresh weight inhibition rate<20%) | Oryza sativa subsp. japonica, grading of fresh weight inhibition rate (crop safety) ([7]; Rate 150 g/ha): E (Fresh weight inhibition rate<20%) | Leptochloa chinensis, control efficacy grading (fresh weight inhibition rate) ([8]; Rate 150 g/ha): A (Fresh weight inhibition rate≥80% to 100%) | Echinochloa crusgalli, control efficacy grading (fresh weight inhibition rate) ([9]; Rate 150 g/ha): C (Fresh weight inhibition rate≥40% to <60%)
